Here are results for two molecules from patent publication US20230285347A1, “Preterm Labour with Prostaglandin E2 Receptor Agonists” (IMPERIAL COLLEGE INNOVATIONS LIMITED, priority 2020, published 2023).

Assay [1] addresses T1, human FLAG-EP2 (Homo sapiens, UniProt P43116).
T1 construct: FLAG; expressed in transfected cells
The experiment in a line: Intracellular Ca2+ release in HEK 293 cells stably expressing EP2 (Fluo-4, confocal; Gαq/11 readout). It counts as cell-based. The note with it: HEK 293 EP2 cells; butaprost 10 μM, AH13205 10 μM, PGN9856i 100 nM; vs vehicle; FIG. 3. The method, then: To measure Gαq/11 activation, HEK 293 cells stably expressing human FLAG-EP2 were pre-labelled with a Ca2+ indicator dye and acutely stimulated with each ligand.
HEK 293 cells, prepared following the same methodology as outlined in Example 1, were seeded onto Mattek dishes with 14 mm by 1.5 mm glass coverslips. Cells were incubated with Fluo-4am Ca2+ indicator (ThermoFisher) as per manufacturer's instructions. […]. Time-series images were acquired using a Leica SP5 confocal microscope, Leica LAS AF image acquisition software and a 488 nm excitation laser. HEK cells were imaged using a 10× dry objective. EP2 agonists (butaprost 10 μM, AH13205 10 μM or PGN9856i 100 nM) were added following measurement of basal fluorescence. Raw files were analysed using Fiji Time series analyser plugin to find the maximal fluorescent intensity, which was then averaged across cells in each condition.
The maximal fluorescence intensity was measured by live confocal microscopy.

For assay [2], the target named is T2, EP2 (Homo sapiens, UniProt P43116).
T2 construct: primary human myocytes cultured from term pregnant, non-labouring, myometrium; endogenous in cells; host or cells: primary human myometrial cells (myocytes) cultured from pregnant myometrium
T2 sequence (P43116 whole entry): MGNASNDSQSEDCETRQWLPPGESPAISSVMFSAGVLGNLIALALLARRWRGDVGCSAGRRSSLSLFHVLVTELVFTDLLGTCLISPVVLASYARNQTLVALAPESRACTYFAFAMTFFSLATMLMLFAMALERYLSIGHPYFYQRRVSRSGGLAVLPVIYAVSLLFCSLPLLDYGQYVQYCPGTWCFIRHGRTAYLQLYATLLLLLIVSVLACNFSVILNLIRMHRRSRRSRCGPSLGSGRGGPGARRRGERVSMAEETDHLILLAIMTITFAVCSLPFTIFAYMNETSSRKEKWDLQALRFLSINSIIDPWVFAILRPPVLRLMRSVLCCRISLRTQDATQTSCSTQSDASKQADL
The experiment in a line: Intracellular calcium in myometrial cells with/without oxytocin pre-treatment. It counts as cell-based. The following applies: OT pre-treatment 1 hour, 100 nM; butaprost 10 μM, AH13205 10 μM, PGN9856i 100 nM; FIG. 11. The method, then: Intracellular calcium response in myometrial cells with/without OT pre-treatment (1 hour, 100 nM) stimulated with butaprost (10 μM), AH13205 (10 μM) or PGN9856i (100 nM). Data are the mean of the maximum fluorescence intensity for each cell measured normalised to background (F-FO). Shown as fold-change over butaprost response. One-way ANOVA with Dunnett's multiple comparison post-hoc test: ##p<0.01. One-sample t-test: *p<0.05.
A general note: A change in cytosolic calcium serves as a functional read-out for many receptors and channels.

Assay [3] has as its target T2, EP2. The assay is described as follows: Intracellular cAMP in primary human myocytes from term pregnant non-labouring myometrium. It counts as cell-based. The note with it: butaprost 10 μM, AH13205 10 μM, PGN9856i 100 nM, FIG. 5. Here is the method: In the myometrium EP2 is an important regulator of parturition. To assess if PGN9856i, butaprost and AH13205 induce similar second messenger profiles in the myometrium as HEK 293 cells, primary human myocytes cultured from term pregnant, non-labouring, myometrium, were treated with each ligand and intracellular cAMP, calcium and PGE2 release was measured.
Myometrial tissue was acquired at St. Mary's hospital, Queen Charlotte and Chelsea hospital and Charing Cross hospital, London. Tissue was obtained from women provided with informed written consent with the approval from the Riverside Research Ethics Committee (RREC 3357, 1997-5089, 19/LO/1657) and experiments were carried out under the committee's guidelines and recommendations. Tissues were obtained from term (38+0-40 weeks gestation) pregnant women undergoing elective caesarean from the upper margin of the incision made at the lower segment of the uterus, before or after the onset of labor. Tissues taken from women in early labour (<3 cm cervical dilation) or late labour (>3 cm cervical dilation) with/without induction with syntocinon, an oxytocin analogue. Tissue was only taken from uncomplicated, singleton pregnancies.
Tissue was stored at 4° C. in phosphate buffered saline until fine dissection with scalpels and dissociation at 37° C. for 1 hour in a sterile-filtered mix of Dulbecco's modified Eagle's medium (DMEM) (Sigma Aldrich)/Ham's F-12 Nutrient Mixture (Sigma Aldrich) and serum-free DMEM (Sigma Aldrich) (1:1 v/v) containing collagenase 1A (Sigma Aldrich)(1 mg/ml), collagenase X (Sigma Aldrich)(1 mg/ml) and bovine serum albumin (Sigma Aldrich) (2 mg/ml). […]
Confluent myometrial cells were treated with/without OT (100 nM) for 1 hour before 3 PBS washes and the addition of […] IBMX (3-isobutyl-1-methylxanthine) in PBS for 5 minutes at 37° C. […] Lysates were normalized to protein concentration determined by Coomassie (Bradford) Protein Assay Kit and analysed as per manufacturers' protocol (Cisbio Gαs dynamic assay) using a PHERAstar FSX.

The next assay deals with T3, human FLAG-tagged EP2 (Homo sapiens, UniProt P43116).
T3 construct: FLAG; expressed in transfected cells
T3 sequence (P43116 whole entry): as above
The assay is described as follows: cAMP induction in HEK 293 cells stably expressing EP2 (Gαs readout). The assay is classed as cell-based. The note with it: HEK 293 EP2 cells; 5 minutes of stimulation; no significant difference between ligands; FIG. 2. The method, then:
EP2 is a dually coupled GPCR capable of activating downstream signalling pathways via Gαs (anti-labour inducing) and Gαq/11 (pro-labour inducing).
HEK 293 cells were maintained in DMEM (Dulbecco's Modified Eagle Medium) containing 10% fetal bovine serum and 100 μ/ml penicillin-streptomycin, and cultured in 75 cm flasks at 37° C. in 95% air and 5% CO2. Cells at 95% confluency were passaged using 0.25% trypsin with 0.02% EDTA in phosphate-buffered saline (PBS).
(§1) Confluent myometrial cells were treated with/without OT (100 nM) for 1 hour before 3 PBS washes and the addition of […] IBMX (3-isobutyl-1-methylxanthine) in PBS for 5 minutes at 37° C. This was exchanged for 0.5 μM IBMX in PBS plus either DMSO, butaprost (10 μM), AH13205 (10 μM) or PGN9856i (100 nM) for […]. Cells were lysed in Cisbio cAMP lysis buffer with 0.2% TritonX-100 and centrifuged for 15 minutes at 16,000 g. Lysates were normalized to protein concentration determined by Coomassie (Bradford) Protein Assay Kit and analysed as per manufacturers' protocol (Cisbio Gαs dynamic assay) using a PHERAstar FSX.

For assay [4], the target named is T1, human FLAG-EP2. The assay is described as follows: PGE2 release by ELISA in HEK 293 cells stably expressing EP2. The assay is classed as cell-based. The following applies: HEK 293 EP2 cells; 6 hours; butaprost 10 μM, AH13205 10 μM, PGN9856i 100 nM; FIG. 4. The method, then: COX-2 is an inflammatory mediator that drives PGE2 production. The inventors had previously shown EP2-dependent COX-2 release to be downstream of Ca2+ release in primary human myometrium and that 6-hour agonist treatment is necessary for increasing COX-2 levels and PGE2 secretion (Kandola et al, 2014). HEK 293 cells stably expressing human FLAG-EP2 were stimulated for 6 hours with an EP2 agonist (butaprost 10 μM, AH13205 10 μM or PGN9856i 100 nM) or DMSO. 1 mL media was collected from COX-2 experiments and immediately frozen at −80 degrees Celsius. […]
(In general: In an ELISA, binding on a coated surface is turned into a signal by an enzyme label.)

The target in assay [5] is T2, EP2. The experiment in a line: cAMP in non-labouring myometrial cells with/without oxytocin pre-treatment. The assay is classed as cell-based. The following applies: OT pre-treatment 1 hour, 100 nM; butaprost 10 μM, AH13205 10 μM, PGN9856i 100 nM; FIG. 10. The method, then: Myometrial cells with/without oxytocin (OT) pre-treatment (1 hour, 100 nM) were treated with IBMX (5 minutes, 0.5 mM) before 1 minute stimulation with IBMX with/without either DMSO, butaprost (10 μM), AH13205 (10 μM) or PGN9856i (100 nM). cAMP concentrations were normalised to protein. Each patient's data normalised to butaprost response and shown as mean±SEM, n=6. One-sample t-test: #p<0.05. ##p<0.01. One-way ANOVA with Sidak's multiple comparison post-hoc test: **p<0.01.
as §1

The next assay deals with β-adrenergic receptor. The assay is described as follows: cAMP signalling in myometrial cells from different labouring groups, β-adrenergic agonist. The assay is classed as cell-based, human. The following applies: isoproterenol 10 μM; all labouring groups; FIG. 8.

T1 sequence (P43116 whole entry): as above
Procedure for β-adrenergic receptor: Myometrial cells from different labouring groups were treated with IBMX (5 minutes, 0.5 mM) before 1 minute stimulation with IBMX with/without butaprost (10 μM) or isoproterenol (10 μM). cAMP concentrations were normalised to protein. Data shown as mean±SEM, L−n=4. All other groups n=5. Each treatment compared to L− using one-way ANOVA with Dunnett's multiple comparison post-hoc test: **p<0.01, ***p<0.001, ****p<0.0001.

Turning to `CCCCCC(O)c1ccc(C2CCC(=O)C2CCCCCCC(=O)O)cc1` (stereo not shown) [AH13205], the “intracellular Ca2+ release (maximal fluorescence intensity)” value at human FLAG-EP2 [1] was “enhanced Ca2+ significantly above vehicle”. Besides, at EP2 [2], the “calcium response with OT pre-treatment” value is recorded as “significantly enhance the calcium response”. The “release of intracellular cAMP” value at EP2 [3] was “able to elicit release of intracellular cAMP”. The “cAMP efficacy at the maximal dose of each ligand” value at human FLAG-tagged EP2 is “equally efficacious”. Also, on human FLAG-EP2 [4], the PGE2 levels entry was “efficacious activators of the pathway”. Further, on EP2 [5], the “effect of OTR activation on ligand's ability to increase intracellular cAMP” value is reported as “significantly reduced”.

Take `CC(C)NCC(O)c1ccc(O)c(O)c1` (stereo not shown) [isoproterenol]: the “agonist-induced cAMP signalling in labouring groups vs non-labouring” value with β-adrenergic receptor was “but not isoproterenol-induced cAMP signalling, was significantly attenuated”.
